This assay addresses T1, TRPA1 receptor (Homo sapiens, UniProt O75762).
T1 construct: expressed in transfected cells; host or cells: HEK cell line
Nature of the assay: cell-based. The arrangement: activation: dose or concentration left out as unconfirmed. The procedure:
The term “TRPA1 activator” as used herein refers to any component which at a concentration of 1 mM gives a calcium flux count of at least 1000 counts above the background level of calcium present in the cell according to the FLIPR method as discussed herein. The term “count” is defined as the change in fluorescence of the transfected cell lines due to the influx of calcium across the cell membrane, which reacts with the calcium sensitive dye present within the cells.
In order to select TRPA1 agonists that would be preferred for reducing off-tasting chemical components found in oral care compositions, calcium flux receptor activity on the TRPA1 was utilized as the criteria for selection of actives. With allyl isothiocyanate as the TRPA1 positive control, molecules that directly activated the TRPA1 receptor were screened in dimethylsulfoxide (DMSO). Pure molecules of each material were dissolved in DMSO at a concentration of 100 micormolar and then added to an HEK cell line containing the TRPA1 receptor. If they are TRPA1 agonists, they will cause a calcium flux in the cell which fluoresces and may then be measured using a FLIPR machine.

Where [1] appears, read: HEK293, percentage of the control (allyl isothiocyanate) calcium count, material dissolved in DMSO at 100 micromolar, HEK cells with TRPA1, direct addition, read-out: TRPA1 Direct addition.
Setting [2] is: HEK293, percentage of the control (allyl isothiocyanate) calcium count, material dissolved in DMSO at 100 micromolar, HEK cells with TRPA1, pre-incubation, read-out: TRPA1 Pre-incubation.
Setting [3] is: HEK293, read-out: TRPA1 Direct addition.
The mark [4] stands for this setting: HEK293, read-out: TRPA1 Pre-incubation.

Where a name gives a salt, the structure may show the parent alone. Read-outs that look alike come from different tables or passages of the source.
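Wherever TRPA1 Pre-incubation is given: values above 100 mean more active than the control.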

T1 sequence (O75762 whole entry): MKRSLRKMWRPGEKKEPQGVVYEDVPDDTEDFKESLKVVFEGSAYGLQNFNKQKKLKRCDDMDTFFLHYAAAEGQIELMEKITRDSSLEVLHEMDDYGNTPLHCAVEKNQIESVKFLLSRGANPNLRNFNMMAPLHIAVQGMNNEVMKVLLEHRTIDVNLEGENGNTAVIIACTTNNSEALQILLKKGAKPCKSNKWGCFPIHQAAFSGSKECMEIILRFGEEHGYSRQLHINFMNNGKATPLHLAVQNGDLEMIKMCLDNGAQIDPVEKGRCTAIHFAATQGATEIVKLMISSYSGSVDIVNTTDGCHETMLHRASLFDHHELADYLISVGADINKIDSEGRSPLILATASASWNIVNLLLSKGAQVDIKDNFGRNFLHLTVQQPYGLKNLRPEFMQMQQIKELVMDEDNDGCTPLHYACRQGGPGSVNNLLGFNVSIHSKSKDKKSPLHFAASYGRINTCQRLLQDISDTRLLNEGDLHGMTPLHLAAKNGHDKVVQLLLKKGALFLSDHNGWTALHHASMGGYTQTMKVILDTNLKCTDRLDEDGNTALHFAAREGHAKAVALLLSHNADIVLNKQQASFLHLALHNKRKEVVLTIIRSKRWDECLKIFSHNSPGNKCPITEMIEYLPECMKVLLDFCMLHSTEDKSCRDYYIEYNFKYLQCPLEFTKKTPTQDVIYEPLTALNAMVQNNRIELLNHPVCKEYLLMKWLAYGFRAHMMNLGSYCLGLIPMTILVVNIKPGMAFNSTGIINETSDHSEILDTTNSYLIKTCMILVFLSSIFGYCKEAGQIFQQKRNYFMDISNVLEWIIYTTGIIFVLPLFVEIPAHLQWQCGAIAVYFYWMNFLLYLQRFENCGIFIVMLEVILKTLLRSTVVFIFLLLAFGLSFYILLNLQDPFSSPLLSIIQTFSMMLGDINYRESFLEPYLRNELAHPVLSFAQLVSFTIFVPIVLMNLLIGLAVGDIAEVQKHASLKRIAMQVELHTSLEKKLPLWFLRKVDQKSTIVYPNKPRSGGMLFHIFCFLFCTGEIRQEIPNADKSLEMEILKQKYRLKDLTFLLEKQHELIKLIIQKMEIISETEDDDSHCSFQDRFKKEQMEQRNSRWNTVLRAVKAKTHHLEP

In the case of `CC/C=C/C=C/C=O` [Trans,trans-2,4-Heptadienal], the activation at 100 µM under setting [1] was determined as 119%. Moreover, the activation under setting [2] is -3.68%.
In the case of `COC(Cc1ccccc1)OC` [Phenylacetaldehyde Dimethyl Acetal], the activation at 100 µM under setting [1] was -14.8%. For the same compound, the activation under setting [2] stood at 81.4%.
For `CCOC(=O)CC(O)(CC(=O)OCC)C(=O)OCC` [Triethyl Citrate], in that order: -9.43% and 82.2%.
For `C=CC(C)(CCC=C(C)C)OC(C)=O` (stereo not drawn) [Linalyl Acetate], the activation at 100 µM under setting [1] was -0.9%. Moreover, the activation under setting [2] was 77.2%.
Take `CC(C)=CCCC(C)C=O` (stereo not drawn) [2,6-Dimethyl-5-Heptenal]: the activation at 100 µM was -0.15% under setting [1] and 97.6% under setting [2].
On to `CC(=O)OC1CC(C)CCC1C(C)C` (stereo not drawn) [Menthyl Acetate], for which, under setting [1], the activation at 100 µM is -7.24%. Also, the activation under setting [2] is 75.8%.
With `COc1cccc(OC)c1O` [2,6-Dimethoxyphenol], under setting [1], the activation at 100 µM was -0.24%. Further, under setting [2], the activation came to 71.6%.
Take `O=S(=O)([O-])NC1CCCCC1.[Na+]` [Sodium Cyclamate]: the “TRPA1 Direct addition” value is listed as −4.07% and the “TRPA1 Pre-incubation” value amounted to 48.66%.
In the case of `CCCC(=O)OCC` [Ethyl Butyrate], under setting [1], the activation at 100 µM is -0.32%. Further, the activation under setting [2] was 87%.
The corresponding values for `CCCCOC(=O)CC` [Butyl Propionate] are -0.32% and 53.4%.
For `CCc1cnccn1` [2-Ethylpyrazine], in that order: -1.56% and 49.9%.
The corresponding values for `CC(=O)C(C)O` (stereo not drawn) [Acetoin] are 0.29% and 82.6%.
On to Methyl Ionone, for which the “TRPA1 Direct addition” value was found to be 38.43% and the “TRPA1 Pre-incubation” value is recorded as −1.32%.
As for `COc1cccc(OC)c1` [M-Dimethoxybenzene], the activation at 100 µM under setting [1] was -0.59%. In addition, the activation under setting [2] is 80.6%.
For `CCCCCCCC(=O)OCC` [Ethyl Octanoate], in that order: -0.14% and 87.3%.
For `CCCCCCCC(C)=O` [Material 2-Nonanone, 2-Nonanone], in that order: 0.36% and 77.2%.
In the case of `C=CCOC(=O)CCCCCCCC` [Allyl Nonanoate], the activation at 100 µM under setting [1] was -1.87%. Under setting [2], the activation was 69.6%.
The corresponding values for `CCC(=O)OC/C=C(\C)CCC=C(C)C` [Geranyl Propionate] are 0.09% and 47.9%.
For 2-Methybutyl Isovalerate, the “TRPA1 Direct addition” value is −1.49% and the “TRPA1 Pre-incubation” value was found to be 69.9%.
On to `CC(=O)OC1CC2CCC1(C)C2(C)C` (stereo not drawn) [Bornyl Acetate], for which the activation at 100 µM under setting [1] was -0.6%. Further, the activation under setting [2] was 51.2%.
The corresponding values for `CC/C=C\CC1=C(C)CCC1=O` [Jasmone] are 46.5% and 51.6%.
For the compound `Cc1cnc(C)cn1` [2,5-Dimethylpyrazine], the activation at 100 µM under setting [1] was -1.08%. Moreover, under setting [2], the activation was found to be 66.8%.
The corresponding values for `CCCC(C)=O` [Material 2-Pentanone, 2-Pentanone] are 0.73% and 90.1%.
For `C=CCc1ccc(OC(=O)c2ccccc2)c(OC)c1` [Eugenol benzoate], in that order: 22.9% and 57.3%.
As to `CC=Cc1ccc(OCc2ccccc2)c(OC)c1` [1-Benzyloxy-2-Mehtoxy-4-(1-Propenyl) Benzene], the “TRPA1 Direct addition” value is listed as −3.8% and the “TRPA1 Pre-incubation” value was 30.8%.
Consider `O=C1NS(=O)(=O)c2ccccc21.[Na]` [Saccharin Sodium], for which the activation is, setting by setting: under setting [3], -12.4%; under setting [4], 62.5%.
`CCC/C=C/COC(C)=O` [Trans-2-Hexenyl Acetate]: the activation at 100 µM under setting [1] is -0.32%. Also, under setting [2], the activation was 68.7%.
For `CCCCCC/C=C/C=O` [Trans-2-Nonenal], in that order: 123% and 23.3%.
The corresponding values for `COc1cc(C)cc(OC)c1O` [4-Methyl-2,6-Dimethoxyphenol] are 45.9% and 9.25%.
The corresponding values for `CCCCC(O)CC` (stereo not drawn) [Material 3-Heptanol, 3-Heptanol] are -1.06% and 81.3%.
With `COC(=O)/C=C/c1ccccc1` [Methyl trans-Cinnamate], the activation at 100 µM under setting [1] was -16.8%. Moreover, under setting [2], the activation came out at 69.4%.
For `CC(C)C(=O)OCCc1ccccc1` [Phenylethyl Isobutyrate], in that order: -3.56% and 63.9%.
For `CC(=O)OCCc1scnc1C` [4-Methyl-5-Thiazoleethanol Acetate], in that order: 0.62% and 76.4%.
For `CCCCCC/C=C\CO` [cis-2-nonen-1-ol], in that order: -1.09% and 79.2%.
Take `CCCCCC/C=C/C=C/C=O` [trans,trans-2,4-Undecadienal]: the activation at 100 µM under setting [1] amounted to 122%. Moreover, the activation under setting [2] is -3.93%.
For `CCCCCCCCC=O` [Nonanal], in that order: -14% and 51.4%.
The corresponding values for `CCCCCOC(=O)c1ccco1` [Amyl 2-Furoate] are -2.39% and 74.1%.
For `CC(C)CCOC(=O)CC(C)C` [Isoamyl Isovalerate], in that order: 0.18% and 59.6%.
Regarding `O=S(=O)([O-])[O-].[Zn+2]` [Zinc Sulfate], the “TRPA1 Direct addition” value came to 29.79% and the “TRPA1 Pre-incubation” value was 21.7%.
With `CC1=CCC(C(C)C)=CC1` [Gamma-Terpinene], the activation at 100 µM under setting [1] came to 0.21%. For the same compound, under setting [2], the activation stood at 61.5%.
The corresponding values for `C=C1CC/C=C(\C)CC[C@@H]2[C@@H]1CC2(C)C` [Beta-Caryophyllene] are 0.21% and 97.8%.
For `COC(C=C(C)CCC=C(C)C)OC` [Citral Dimethyl Acetal], in that order: 0.16% and 78%.
Turning to `O=CC=Cc1ccccc1` [Cinnamaldehyde], the activation at 100 µM under setting [1] is 114%. Moreover, under setting [2], the activation is -1.2%.
For `COc1cc(/C=C/C(=O)O)ccc1O` [Trans-Ferulic Acid], under setting [1], the activation at 100 µM was -2.53%. Besides, under setting [2], the activation is 85.6%.
For `COc1cc(C)ccc1C(C)C` [thymyl methyl ether], in that order: -0.16% and 108%.
The corresponding values for `Cc1occc(=O)c1O` [Maltol] are -2.79% and 102%.
The corresponding values for `OC/C=C/c1ccccc1` [Cinnamic Alcohol] are -1.45% and 84%.
`CC1(C)C2CCC1(C)C(O)C2` (stereo not drawn) [Borneol]: under setting [1], the activation at 100 µM was -1.6%. Moreover, the activation under setting [2] was 51%.
The corresponding values for `CCCOC(=O)c1ccc(O)cc1` [n-Propyl-4-hydroxybenzoate] are 173% and 8.13%.
The corresponding values for `CCC(C)C1CCCCC1=O` (stereo not drawn) [2-sec-Butylcyclohexanon] are -1.47% and 63.7%.
For `CCCCOC(=O)CCC` [Butyl Butyrate], in that order: -0.66% and 62.3%.
Take `CC(C)C(=O)OCc1ccccc1` [Benzyl Isobutyrate]: the activation at 100 µM under setting [1] is -2.7%. The activation under setting [2] was found to be 65%.
On to `C=C1C2CCC(C2)C1(C)C` (stereo not drawn) [Camphene], for which the activation at 100 µM under setting [1] is -1.43%. For the same compound, the activation under setting [2] amounted to 96.5%.
In the case of `OCc1ccccc1` [Benzyl Alcohol], the activation at 100 µM under setting [1] came out at 21.4%. Further, the activation under setting [2] worked out at 14.6%.
For `CC(=O)c1ccccc1` [Acetophenone], in that order: 0.64% and 81.1%.
For `OCCc1ccccc1` [Phenyl Ethyl Alcohol], in that order: -4.77% and 55%.
For `CCCCCCC(C)O` (stereo not drawn) [Material 2-Octanol, 2-Octanol], in that order: -14.1% and 55.3%.
With `O=C1CCCCCCCCCCCC(=O)OCCO1` [Ethylene Brassylate], under setting [1], the activation at 100 µM was -0.58%. Also, under setting [2], the activation came to 37.2%.
For `CCCCC(=O)OCC` [Ethyl Valerate], in that order: -0.08% and 101%.
Consider `CC(=O)OCc1ccc2c(c1)OCO2` [Piperonyl Acetate], for which the activation at 100 µM was -0.28% under setting [3] and 102% under setting [4].
As for `CC(C)CC(=O)OC1CC2CCC1(C)C2(C)C` (stereo not drawn) [Bornyl Isovalerate], under setting [1], the activation at 100 µM is -1.36%. Also, the activation under setting [2] came to 72.5%.
The corresponding values for `CCCC/C=C/C=O` [trans-2-Heptenal] are 95.9% and -3.74%.
For `O=Cc1ccccc1` [Benzaldehyde], in that order: -1.46% and 90.1%.

(Values after patent US9937115B2, “Oral care compositions with improved flavor” (priority 2010, dated 2018).)
